What follows are compounds tested against HPK1 (Homo sapiens (Human), UniProt Q92918) (assay: HPK1 biochemical enzyme assay (microfluidic mobility shift assay)). Details: 1.5 nM HPK1, ATP 1 mM final, 30 min preincubation, 60 min at RT, Caliper EZ Reader; read-out: HPK1 1000UMATP caliper IC50.
Outline: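 Ten-point compound titrations (top 3 μM final) preincubated 30 min with HPK1 and substrate, then reaction started with 1 mM ATP and 1 μM substrate, 5 mM MgCl2. After 60 min at RT, reaction terminated and product measured by microfluidic mobility shift.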

Sequence of HPK1 (Q92918 whole entry): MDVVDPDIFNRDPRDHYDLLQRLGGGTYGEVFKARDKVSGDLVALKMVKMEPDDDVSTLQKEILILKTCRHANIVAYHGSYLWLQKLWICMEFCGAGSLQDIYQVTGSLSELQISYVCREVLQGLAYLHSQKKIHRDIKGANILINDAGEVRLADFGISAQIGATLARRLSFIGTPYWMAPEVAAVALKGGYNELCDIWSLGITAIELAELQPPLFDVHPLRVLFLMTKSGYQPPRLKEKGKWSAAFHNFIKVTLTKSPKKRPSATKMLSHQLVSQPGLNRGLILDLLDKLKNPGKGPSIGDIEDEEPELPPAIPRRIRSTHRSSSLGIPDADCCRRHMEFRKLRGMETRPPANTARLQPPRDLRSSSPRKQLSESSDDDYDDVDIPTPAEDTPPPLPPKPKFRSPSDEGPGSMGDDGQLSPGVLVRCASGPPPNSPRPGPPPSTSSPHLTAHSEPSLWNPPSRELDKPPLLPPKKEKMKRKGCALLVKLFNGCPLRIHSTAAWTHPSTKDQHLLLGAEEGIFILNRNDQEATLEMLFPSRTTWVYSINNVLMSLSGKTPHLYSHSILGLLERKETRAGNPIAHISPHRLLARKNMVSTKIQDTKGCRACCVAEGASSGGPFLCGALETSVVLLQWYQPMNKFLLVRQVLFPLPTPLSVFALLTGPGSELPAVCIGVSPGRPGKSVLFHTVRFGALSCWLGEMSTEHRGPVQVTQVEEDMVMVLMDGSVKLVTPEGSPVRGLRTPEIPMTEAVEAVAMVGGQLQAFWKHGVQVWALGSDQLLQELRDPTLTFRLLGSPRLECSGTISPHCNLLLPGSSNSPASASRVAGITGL

`O=C1NCc2c(-c3cnc4cc(F)ccn34)ccc(Nc3ccc([C@H]4CCOC4)c(CN4CCC(F)(F)C4)n3)c21` [I-717, (R)-7-((6-((3,3-difluoropyrro-lidin-1-yl)methyl)-5-(tetrahydrofuran-3-yl)pyridin-2-yl)amino)-4-(7-fluoroimidazo [1,2-a]pyridin-3-yl)isoindolin-1-one] and `O=C1NCc2c(-c3cnc4cc(F)ccn34)ccc(Nc3ccc([C@@H]4CCOC4)c(CN4CCC(F)(F)C4)n3)c21` [I-718, (S)-7-((6-((3,3-difluoropyrro-lidin-1-yl)methyl)-5-(tetrahydrofuran-3-yl)pyridin-2-yl)amino)-4-(7-fluoroimidazo [1,2-a]pyridin-3-yl)isoindolin-1-one] cannot be ordered by IC50: less than 100 nM for the first, less than 100 nM for the second.

`CN(C)Cc1nc(Nc2ccc(-c3cnc4cc(F)ccn34)c3c2C(=O)NC3)ccc1C1(O)CCOCC1` [I-719, 7-((6-((dimethylamino)-methyl)-5-(4-hydroxytetra-hydro-2H-pyran-4-yl)pyridin-2-yl)amino)-4-(7-fluoroimidazo [1,2-a]pyridin-3-yl)isoindolin-1-one] and `CN(C)Cc1nc(Nc2ccc(-c3cnc4cc(F)ccn34)c3c2C(=O)NC3)ccc1N1CCC(O)CC1` [I-777, 7-((6-((dimethylamino)-methyl)-5-(4-hydroxypiperidin-1-yl)pyridin-2-yl)amino)-4-(7-fluoroimidazo [1,2-a]pyridin-3-yl)isoindolin-1-one] cannot be ordered by IC50: less than 100 nM for the first, less than 100 nM for the second.

First: Cn1ccc2c(-c3ncc(Nc4cccc(N5C[C@H](N6CCC6)CC5=O)n4)c4c3CNC4=O)ccnc21 [I-724, (R)-7-((6-(4-(azetidin-1-yl)-2-oxopyrrolidin-1-yl)pyridin-2-yl)amino)-4-(1-methyl-1H-pyrrolo[2,3-b]pyridin-4-yl)-2,3-dihydro-1H-pyrrolo[3,4-c]pyridin-1-one]
Second: Cn1ccc2c(-c3ncc(Nc4cccc(N5C[C@@H](N6CCC6)CC5=O)n4)c4c3CNC4=O)ccnc21 [I-725, (S)-7-((6-(4-(azetidin-1-yl)-2-oxopyrrolidin-1-yl)pyridin-2-yl)amino)-4-(1-methyl-1H-pyrrolo[2,3-b]pyridin-4-yl)-2,3-dihydro-1H-pyrrolo[3,4-c]pyridin-1-one]
The IC50 of the first is higher: 100 to 1000 nM for the first, less than 100 nM for the second.

`CN(Cc1nc(Nc2ccc(-c3cnc4cc(F)ccn34)c3c2C(=O)NC3)ccc1[C@H]1CCOC1)C1CC1` [I-737] and `CN(Cc1nc(Nc2ccc(-c3cnc4cc(F)ccn34)c3c2C(=O)NC3)ccc1[C@@H]1CCOC1)C1CC1` [I-738] cannot be ordered by IC50: less than 100 nM for the first, less than 100 nM for the second.

`CN(Cc1nc(Nc2ccc(-c3cnc4cc(F)ccn34)c3c2C(=O)NC3)ccc1[C@H]1CCOC1)C1COC1` [I-743, (R)-4-(7-fluoroimidazo [1,2-a]pyridin-3-yl)-7-((6-((methyl(oxe-tan-3-yl)amino)meth-yl)-5-(tetrahydrofuran-3-yl)pyridin-2-yl)amino)isoin-dolin-1-one] and `CN(Cc1nc(Nc2ccc(-c3cnc4cc(F)ccn34)c3c2C(=O)NC3)ccc1[C@@H]1CCOC1)C1COC1` [I-744, (S)-4-(7-fluoroimidazo [1,2-a]pyridin-3-yl)-7-((6-((methyl(oxe-tan-3-yl)amino)meth-yl)-5-(tetrahydrofuran-3-yl)pyridin-2-yl)amino)isoin-dolin-1-one] cannot be ordered by IC50: less than 100 nM for the first, less than 100 nM for the second.

`CN(C)Cc1nc(Nc2ccc(-c3cnc4cc(F)ccn34)c3c2C(=O)NC3)ccc1N1CCC[C@@H](C(C)(C)O)C1` [I-745, (R)-7-((6-((dimethylamino)-methyl)-5-(3-(2-hydroxypropan-2-yl)piperidin-1-yl)pyridin-2-yl)amino)-4-(7-fluoroimidazo [1,2-a]pyridin-3-yl)isoindolin-1-one] and `CN(C)Cc1nc(Nc2ccc(-c3cnc4cc(F)ccn34)c3c2C(=O)NC3)ccc1N1CCC[C@H](C(C)(C)O)C1` [I-746, (S)-7-((6-((dimethylamino)-methyl)-5-(3-(2-hydroxypropan-2-yl)piperidin-1-yl)pyridin-2-yl)amino)-4-(7-fluoroimidazo [1,2-a]pyridin-3-yl)isoindolin-1-one] cannot be ordered by IC50: less than 100 nM for the first, less than 100 nM for the second.

`CC(C)(c1ccc(Nc2ccc(-c3cnc4cc(F)ccn34)c3c2C(=O)NC3)nc1)N1CCOCC1` [I-747, 4-(7-fluoroimidazo [1,2-a]pyridin-3-yl)-7-((5-(2-morpholino-propan-2-yl)pyridin-2-yl)amino)isoin-dolin-1-one] and `O=C1NCc2c(-c3cnc4cc(F)ccn34)ccc(Nc3ccc([C@H]4CCOC4)c(CN4CCC4)n3)c21` [I-755, (R)-7-((6-(azetidin-1-ylmethyl)-5-(tetrahydrofuran-3-yl)pyridin-2-yl)amino)-4-(7-fluoroimidazo [1,2-a]pyridin-3-yl)isoindolin-1-one] cannot be ordered by IC50: less than 100 nM for the first, less than 100 nM for the second.

`O=C1NCc2c(-c3cnc4cc(F)ccn34)ccc(Nc3ccc([C@H]4CCOC4)c(CNCC(F)(F)F)n3)c21` [I-750, (R)-4-(7-fluoroimidazo [1,2-a]pyridin-3-yl)-7-((5-(tetrahydrofuran-3-yl)-6-(((2,2,2-trifluoroethyl)amino)methyl)pyridin-2-yl)amino)isoin-dolin-1-one] and `O=C1NCc2c(-c3cnc4cc(F)ccn34)ccc(Nc3ccc([C@@H]4CCOC4)c(CNCC(F)(F)F)n3)c21` [I-751, (S)-4-(7-fluoroimidazo [1,2-a]pyridin-3-yl)-7-((5-(tetrahydrofuran-3-yl)-6-(((2,2,2-trifluoroethyl)amino)methyl)pyridin-2-yl)amino)isoin-dolin-1-one] cannot be ordered by IC50: less than 100 nM for the first, less than 100 nM for the second.

`O=C1NCc2c(-c3cnc4cc(F)ccn34)ccc(Nc3ccc([C@H]4CCOC4)c(CN4CCC4)n3)c21` [I-756, (R)-7-((6-(azetidin-1-ylmethyl)-5-(tetrahydrofuran-3-yl)pyridin-2-yl)amino)-4-(7-fluoroimidazo [1,2-a]pyridin-3-yl)isoindolin-1-one] and `O=C1NCc2c(-c3cnc4cc(F)ccn34)ccc(Nc3ccc([C@H]4CCOC4)c(CN4CC[C@H](O)C4)n3)c21` [I-778, 4-(7-fluoroimidazo[1,2-a]pyridin-3-yl)-7-((6-(((S)-3-hydroxypyrrolidin-1-yl)methyl)-5-((R)-tetrahydrofuran-3-yl)pyridin-2-yl)amino)isoindolin-1-one] cannot be ordered by IC50: less than 100 nM for the first, less than 100 nM for the second.

`O=C1NCc2c(-c3cnc4cc(F)ccn34)ccc(Nc3ccc([C@H]4CCOC4)c(CN4CC(F)C4)n3)c21` [I-762, (R)-7-((6-((3-fluoroazetidin-1-yl)methyl)-5-(tetrahydrofuran-3-yl)pyridin-2-yl)amino)-4-(7-fluoroimidazo [1,2-a]pyridin-3-yl)isoindolin-1-one] and `O=C1NCc2c(-c3cnc4cc(F)ccn34)ccc(Nc3ccc(C4CCOC4)c(CO)n3)c21` (stereo not shown) [I-771, 4-(7-fluoroimidazo [1,2-a]pyridin-3-yl)-7-((6-(hydroxymeth-yl]-5-(tetrahydrofuran-3-yl)pyridin-2-yl)amino)isoin-dolin-1-one] cannot be ordered by IC50: less than 100 nM for the first, less than 100 nM for the second.

`CN(C)Cc1nc(Nc2cnc(-c3ccnc4[nH]ccc34)c3c2C(=O)NC3)ccc1[C@@H]1CCOC1` [I-766, (S)-7-((6-((dimethylamino)-methyl)-5-(tetrahydrofuran-3-yl)pyridin-2-yl)amino)-4-(1H-pyrrolo[2,3-b]pyridin-4-yl)-2,3-dihydro-1H-pyrrolo[3,4-c]pyridin-1-one] and `CN(C)Cc1nc(Nc2cnc(-c3ccnc4[nH]ccc34)c3c2C(=O)NC3)ccc1[C@H]1CCOC1` [I-767, (R)-7-((6-((dimethylamino)-methyl)-5-(tetrahydrofuran-3-yl)pyridin-2-yl)amino)-4-(1H-pyrrolo[2,3-b]pyridin-4-yl)-2,3-dihydro-1H-pyrrolo[3,4-c]pyridin-1-one] cannot be ordered by IC50: less than 100 nM for the first, less than 100 nM for the second.

`CN(C)Cc1nc(Nc2cnc(-c3ccnc4c3ccn4C)c3c2C(=O)NC3)ccc1N1CCOCC1` [I-768, 7-((6-((dimethylamino)-methyl)-5-morpholinopy-ridin-2-yl)amino)-4-(1-methyl-1H-pyrrolo[2,3-b]pyridin-4-yl)-2,3-dihydro-1H-pyrrolo[3,4-c]pyridin-1-one] and `CN(C)Cc1nc(Nc2cnc(-c3ccnc4c3ccn4C)c3c2C(=O)NC3)ccc1N1CCC(O)CC1` [I-776, 7-((6-((dimethylamino)-methyl)-5-(4-hydroxypiperidin-1-yl)pyridin-2-yl)amino)-4-(1-methyl-1H-pyrrolo[2,3-b]pyridin-4-yl)-2,3-dihydro-1H-pyrrolo[3,4-c]pyridin-1-one] cannot be ordered by IC50: less than 100 nM for the first, less than 100 nM for the second.

`CN(C)Cc1nc(Nc2cnc(-c3ccnc4c3ccn4C)c3c2C(=O)NC3)ccc1N1CCO[C@@H](C(C)(C)O)C1` [I-769, (R)-7-((6-((dimethylamino)-methyl)-5-(2-(2-hydroxypropan-2-yl)morpholino)pyridin-2-yl)amino)-4-(1-methyl-1H-pyrrolo[2,3-b]pyridin-4-yl)-2,3-dihydro-1H-pyrrolo[3,4-c]pyridin-1-one] and `CN(C)Cc1nc(Nc2cnc(-c3ccnc4c3ccn4C)c3c2C(=O)NC3)ccc1N1CCO[C@H](C(C)(C)O)C1` [I-770, (S)-7-((6-((dimethylamino)-methyl)-5-(2-(2-hydroxypropan-2-yl)morpholino)pyridin-2-yl)amino)-4-(1-methyl-1H-pyrrolo[2,3-b]pyridin-4-yl)-2,3-dihydro-1H-pyrrolo[3,4-c]pyridin-1-one] cannot be ordered by IC50: less than 100 nM for the first, less than 100 nM for the second.

`CN(C)Cc1nc(Nc2ccc(-c3cnc4cc(F)ccn34)c3c2C(=O)NC3)ccc1N1CCO[C@H](C(C)(C)O)C1` [I-774, (S)-7-((6-((dimethylamino)-methyl)-5-(2-(2-hydroxypropan-2-yl)morpho-lino)pyridin-2-yl)amino)-4-(7-fluoroimidazo [1,2-a]pyridin-3-yl)isoindolin-1-one] and `CN(C)Cc1nc(Nc2ccc(-c3cnc4cc(F)ccn34)c3c2C(=O)NC3)ccc1N1CCO[C@@H](C(C)(C)O)C1` [I-775, (R)-7-((6-((dimethylamino)-methyl)-5-(2-(2-hydroxypropan-2-yl)morpho-lino)pyridin-2-yl)amino)-4-(7-fluoroimidazo [1,2-a]pyridin-3-yl)isoindolin-1-one] cannot be ordered by IC50: less than 100 nM for the first, less than 100 nM for the second.
